Measurements published in the NIST ThermoML archive (doi:10.1021/je1003065).
Numbers after ± are expanded uncertainties.

Test: mn = molality of the nth substance listed, in mol/kg
Settings: Liquid, Vibrating tube method

[Br-].[Li+] [lithium bromide] + CCO
Settings	mass density [kg/m3]
273.09 K, 4590 kPa, m1 = 2.272	943.92 ± 1.9
273.13 K, 30024 kPa, m1 = 0.2335	841.53 ± 1.7
273.14 K, 5012 kPa, m1 = 0.2335	824.8 ± 1.7
273.14 K, 29954 kPa, m1 = 2.833	990.17 ± 2
273.14 K, 49926 kPa, m1 = 2.833	1001.06 ± 2
273.14 K, 80014 kPa, m1 = 0.2335	868.58 ± 1.8
273.15 K, 1023 kPa, m1 = 0.2335	821.76 ± 1.6
273.15 K, 1024 kPa, m1 = 0.9499	866.06 ± 1.7
273.15 K, 1024 kPa, m1 = 2.833	971.83 ± 1.9
273.15 K, 1537 kPa, m1 = 3.368	1000.06 ± 2
273.15 K, 2048 kPa, m1 = 1.462	896.66 ± 1.8
273.15 K, 5002 kPa, m1 = 2.833	974.56 ± 1.9
273.15 K, 5021 kPa, m1 = 0.9499	868.77 ± 1.7
273.15 K, 10002 kPa, m1 = 0.2335	828.53 ± 1.7
273.15 K, 10002 kPa, m1 = 0.9499	872.07 ± 1.8
273.15 K, 10177 kPa, m1 = 2.272	947.5 ± 1.9
273.15 K, 19956 kPa, m1 = 2.833	984.22 ± 2
273.15 K, 20031 kPa, m1 = 0.2335	835.19 ± 1.7
273.15 K, 20031 kPa, m1 = 0.9499	878.51 ± 1.8
273.15 K, 30045 kPa, m1 = 0.9499	884.65 ± 1.8
273.15 K, 39945 kPa, m1 = 0.2335	847.51 ± 1.7
273.15 K, 39974 kPa, m1 = 2.833	995.79 ± 2
273.15 K, 40015 kPa, m1 = 0.9499	890.49 ± 1.8
273.15 K, 49923 kPa, m1 = 0.2335	853.22 ± 1.7
273.15 K, 50027 kPa, m1 = 0.9499	896.06 ± 1.8
273.15 K, 59570 kPa, m1 = 2.272	975.51 ± 2
273.15 K, 60021 kPa, m1 = 2.833	1006.15 ± 2
273.15 K, 60029 kPa, m1 = 0.9499	901.35 ± 1.8
273.15 K, 69980 kPa, m1 = 2.272	980.49 ± 2
273.15 K, 70002 kPa, m1 = 0.9499	906.34 ± 1.8
273.15 K, 70003 kPa, m1 = 0.2335	863.78 ± 1.8
273.15 K, 70035 kPa, m1 = 2.833	1010.98 ± 2
273.15 K, 79857 kPa, m1 = 2.272	985.04 ± 2
273.15 K, 79954 kPa, m1 = 0.9499	911.03 ± 1.9
273.15 K, 89925 kPa, m1 = 2.272	989.55 ± 2
273.15 K, 89935 kPa, m1 = 0.9499	915.46 ± 1.9
273.15 K, 89956 kPa, m1 = 2.833	1020.12 ± 2.1
273.15 K, 90023 kPa, m1 = 0.2335	873.07 ± 1.8
273.15 K, 99945 kPa, m1 = 0.2335	877.21 ± 1.9
273.15 K, 99986 kPa, m1 = 0.9499	919.63 ± 1.9
273.15 K, 99986 kPa, m1 = 2.833	1024.57 ± 2.1
273.16 K, 5195 kPa, m1 = 1.462	898.75 ± 1.8
273.16 K, 10032 kPa, m1 = 2.833	977.92 ± 2
273.16 K, 20027 kPa, m1 = 3.368	1011.76 ± 2
273.16 K, 29980 kPa, m1 = 3.368	1017.69 ± 2
273.16 K, 39977 kPa, m1 = 3.368	1023.39 ± 2
273.16 K, 49994 kPa, m1 = 0.5972	875.26 ± 1.8
273.16 K, 59884 kPa, m1 = 0.5972	880.54 ± 1.8
273.16 K, 59985 kPa, m1 = 0.2335	858.67 ± 1.8
273.16 K, 69990 kPa, m1 = 0.5972	885.63 ± 1.8
273.16 K, 80061 kPa, m1 = 2.833	1015.64 ± 2
273.16 K, 100090 kPa, m1 = 2.272	994.02 ± 2
273.17 K, 1948 kPa, m1 = 2.272	941.72 ± 1.9
273.17 K, 9742 kPa, m1 = 1.462	901.73 ± 1.8
273.17 K, 10114 kPa, m1 = 3.368	1005.6 ± 2
273.17 K, 19964 kPa, m1 = 0.5972	857.46 ± 1.7
273.17 K, 20349 kPa, m1 = 2.272	953.97 ± 1.9
273.17 K, 29947 kPa, m1 = 2.272	959.72 ± 1.9
273.17 K, 29993 kPa, m1 = 0.5972	863.7 ± 1.7
273.17 K, 39918 kPa, m1 = 0.5972	869.58 ± 1.8
273.17 K, 49964 kPa, m1 = 2.272	970.63 ± 1.9
273.17 K, 49974 kPa, m1 = 3.368	1028.82 ± 2.1
273.17 K, 80091 kPa, m1 = 0.5972	890.43 ± 1.8
273.17 K, 89924 kPa, m1 = 3.368	1047.9 ± 2.1
273.17 K, 89993 kPa, m1 = 0.5972	894.84 ± 1.9
273.17 K, 99951 kPa, m1 = 3.368	1052.03 ± 2.1
273.18 K, 1306 kPa, m1 = 0.5972	845.06 ± 1.7
273.18 K, 4686 kPa, m1 = 0.5972	847.38 ± 1.7
273.18 K, 4965 kPa, m1 = 3.368	1002.3 ± 2
273.18 K, 9917 kPa, m1 = 0.5972	850.91 ± 1.7
273.18 K, 20115 kPa, m1 = 1.462	908.3 ± 1.8
273.18 K, 29966 kPa, m1 = 1.462	914.27 ± 1.8
273.18 K, 49922 kPa, m1 = 1.462	925.55 ± 1.9
273.18 K, 60091 kPa, m1 = 1.462	930.87 ± 1.9
273.18 K, 60277 kPa, m1 = 3.368	1034.14 ± 2.1
273.18 K, 69993 kPa, m1 = 1.462	935.78 ± 1.9
273.18 K, 69994 kPa, m1 = 3.368	1038.9 ± 2.1
273.18 K, 79725 kPa, m1 = 3.368	1043.43 ± 2.1
273.18 K, 80129 kPa, m1 = 1.462	940.52 ± 1.9
273.18 K, 89963 kPa, m1 = 1.462	944.86 ± 1.9
273.18 K, 100098 kPa, m1 = 0.5972	899.04 ± 1.9
273.19 K, 39973 kPa, m1 = 1.462	920.07 ± 1.9
273.19 K, 40359 kPa, m1 = 2.272	965.49 ± 1.9
273.2 K, 99708 kPa, m1 = 1.462	948.89 ± 1.9
293.12 K, 9790 kPa, m1 = 1.462	886.75 ± 1.8
293.13 K, 1999 kPa, m1 = 1.462	881.23 ± 1.8
293.13 K, 5005 kPa, m1 = 1.462	883.38 ± 1.8
293.13 K, 19962 kPa, m1 = 1.462	893.68 ± 1.8
293.13 K, 29997 kPa, m1 = 1.462	900.21 ± 1.8
293.13 K, 30014 kPa, m1 = 0.2335	827.08 ± 1.7
293.13 K, 40468 kPa, m1 = 1.462	906.69 ± 1.8
293.13 K, 49901 kPa, m1 = 1.462	912.25 ± 1.8
293.13 K, 59950 kPa, m1 = 3.368	1019.25 ± 2
293.14 K, 5014 kPa, m1 = 0.2335	809.13 ± 1.6
293.14 K, 10097 kPa, m1 = 3.368	989.9 ± 2
293.14 K, 19953 kPa, m1 = 2.833	969.14 ± 1.9
293.14 K, 49968 kPa, m1 = 2.833	986.92 ± 2
293.14 K, 49985 kPa, m1 = 0.2335	839.79 ± 1.7
293.14 K, 59817 kPa, m1 = 0.5972	867.48 ± 1.8
293.14 K, 60137 kPa, m1 = 1.462	917.97 ± 1.9
293.14 K, 69946 kPa, m1 = 3.368	1024.25 ± 2.1
293.14 K, 69979 kPa, m1 = 0.5972	872.97 ± 1.8
293.14 K, 69979 kPa, m1 = 1.462	923.18 ± 1.9
293.14 K, 79675 kPa, m1 = 0.5972	877.88 ± 1.8
293.15 K, 1003 kPa, m1 = 0.2335	805.64 ± 1.6
